One experiment concerns the target c-Met (Homo sapiens, UniProt P08581). The experiment in a line: c-Met kinase inhibition assay (radiometric, 33P-ATP, polyE4Y substrate). Particulars: 0.5 nM c-Met, 35 μM ATP, competitive tight-binding fit. Format: biochemical. How it is done: The compounds of the invention were screened for their ability to inhibit c-Met kinase using a standard radiometric assay. Briefly, in this kinase assay the transfer of the terminal ^33P-phosphate in ^33P-ATP to substrate polyE4Y is interrogated. The assay was carried out in 96-well plates to a final volume of 100 μL per well containing 0.5 nM c-Met, 100 mM HEPES (pH 7.5), 10 mM MgCl2, 25 mM NaCl, 0.01% BSA, 1 mM DTT, 0.5 mg/mL polyE4Y, and 35 μM ATP. Accordingly, compounds of the invention were dissolved in DMSO to make 10 mM initial stock solutions. Serial dilutions in DMSO were then made to obtain the final solutions for the assay. A 1.5 μL aliquot of DMSO or inhibitor in DMSO was added to each well, followed by the addition of ^33P-ATP, and finally the addition of c-Met and polyE4Y (obtained from Sigma). After 20 min, the reaction was quenched with 50 μL of 30% trichloroacetic acid (TCA) containing 4 mM ATP. The reaction mixture was transferred to the 0.66 mm GF filter plates (Corning) and washed three times with 5% TCA. Following the addition of 50 μL of Ultimate Gold™ high efficiency scintillant (Packard Bioscience), the samples were counted in a Packard TopCount NXT Microplate Scintillation and Luminescence Counter (Packard BioScience). The Ki values, shown in Table 2, were calculated using Microsoft Excel Solver macros to fit the data to the kinetic model for competitive tight-binding inhibition.

In a further experiment the target is T1, PDE3A (Homo sapiens, UniProt Q14432).
T1 construct: purchased BPS Bioscience 60030
T1 sequence (Q14432 669-1141 limits assumed): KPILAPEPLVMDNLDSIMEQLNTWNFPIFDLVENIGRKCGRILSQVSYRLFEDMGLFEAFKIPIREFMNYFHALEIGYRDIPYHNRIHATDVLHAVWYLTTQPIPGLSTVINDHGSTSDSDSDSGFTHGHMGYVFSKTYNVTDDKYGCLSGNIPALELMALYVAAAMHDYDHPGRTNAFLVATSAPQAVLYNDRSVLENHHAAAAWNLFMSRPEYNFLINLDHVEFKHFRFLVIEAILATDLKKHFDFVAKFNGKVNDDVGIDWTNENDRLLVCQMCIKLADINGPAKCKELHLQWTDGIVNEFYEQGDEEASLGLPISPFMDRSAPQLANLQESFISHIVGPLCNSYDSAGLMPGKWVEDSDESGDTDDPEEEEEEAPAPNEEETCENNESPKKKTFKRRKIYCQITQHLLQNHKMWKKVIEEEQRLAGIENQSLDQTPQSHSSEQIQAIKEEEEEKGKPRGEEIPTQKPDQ
The experiment in a line: Inhibition of PDE3 (mobility-shift assay, LabChip 3000). Format: biochemical. Particulars: for IC50: PDE3A, iFL-cAMP substrate, 40 minute incubation; for activity against PDE3 compared with the respective enantiomer: statement in words in the summary. The text has this:
Phosphodiesterase-3 (PDE3) is one of a family of phosphodiesterases responsible for the regulation of cyclic nucleotide second messengers. PDE3 enzymes are involved in regulation of cardiac and vascular smooth muscle contractility. Agents that inhibit PDE3 were originally investigated for the treatment of heart failure but have unwanted arrhythmic side effects. See Dart R. C., Medical Toxicology, Edition 3, page 708; Lippincott 2004.
Compounds of formula I were screened for their ability to inhibit PDE3 in a mobility-shift assay that quantitates the conversion of a flourescent analog of cyclic AMP to a flourescent analog of AMP using a LabChip 3000 (Caliper Life Sciences, Hopkinton, Mass.). Accordingly, a 0.6 μL aliquot of the test compound dissolved in DMSO was placed in a well of a 384-well plate, followed by the addition of a 15 μL aliquot of 200 ng/mL PDE3A (BPS Bioscience, San Diego, Calif., Catalog No. 60030) in 50 mM HEPES buffer at pH 7.5, containing 5 mM MgCl2 and 0.001% Brij-35 (Buffer A). The enzyme and compound were incubated at room temperature for 15 minutes, followed by the addition of a 15 μL aliquot of 2 μM iFL-cAMP (Caliper Life Sciences, Catalog No. 760444) in Buffer A. Following a 40 minute incubation at room temperature, the reaction was quenched by the addition of a 45 μL aliquot of 100 mM HEPES buffer at pH 7.5, containing 30 mM EDTA, 0.015% Brij-35, and 0.1% CR-3 (Caliper Life Sciences). […] Percent conversion was determined using HTS Well Analyzer software (Caliper Life Sciences, v5, SP2). IC50 values were determined using non-linear regression with Prism (v5.0a, GraphPad Software, Inc., La Jolla, Calif.).

Experiment [1] deals with Snu5-AP1-Luc-Pest cells (c-Met). The experiment in a line: Inhibition of c-Met activity in Snu5 gastric carcinoma cells (Snu5-AP1-Luc-Pest luciferase reporter). Type of experiment: cell-based. Particulars: Homo sapiens, SNU-5, 6 hours incubation, luciferase signal. From the text: Compounds of formula I were also screened for their ability to inhibit the Luciferase-induced signal in an engineered Snu5 cell line. Snu5 [obtained from American Type Culture Collection (Catalog number CRL-5973)] is a human gastric carcinoma known to overexpress c-Met, which is constitutively active. The cell line was transduced with the retrovirus, pCLPCX, which contains a genetic construct consisting of 6×AP 1 promoter response elements and a luciferase gene having a C-terminal PEST sequence (proteolytic signal from mouse ornithine decarboxylase, which reduces the half-life of the luciferase). The constitutively active c-Met activates cellular pathways (principally MAP kinase), resulting in AP-1-induced transcription of luciferase-PEST and translation into the final product, the activity of which is quantifiable as a chemiluminescent readout upon the addition of luciferin (Steady-Glo from Promega). Residual luminescence is strongly correlated to the inhibition of c-Met. A stable cell line was obtained by selecting the new cell line (Snu5-AP1-Luc-Pest) with puromycin. The cells were grown in complete media [Iscove's media (Invitrogen) containing 10% fetal bovine serum (FBS, Hyclone) and penicillin/gentamycin (Invitrogen)]. Compounds of the invention were dissolved in DMSO to make 10 mM initial stock solutions. Serial dilutions in DMSO were then made and transferred to complete medium to make a 10× solution. The Snu5-AP1-Luc-Pest cells were counted and diluted to 200,000-cells/mL solution. The cells (90 μL) were added to each well in a 96-well black with clear bottom plate (Costar). Then 10 μL of the 10× compound solution was added to the cells in triplicate. The plates were incubated in a 37° C./5% CO2 incubator. After 6 hours, 50 μL of the Steady-Glo reagent (Promega) was added to each well and placed on a plate shaker for 5 minutes to ensure that the cells were completely lysed. The plate was read on a 1450 Microbeta Liquid Scintillation and Luminescence Counter (Perkin-Elmer). The IC50 values, shown in Table 2, were calculated using a 4-parameter fit using the graphing software Prism (GraphPad).
Background: In a reporter assay the amount or activity of a reporter protein is the signal.

c-Met, sequence (P08581 25-1390): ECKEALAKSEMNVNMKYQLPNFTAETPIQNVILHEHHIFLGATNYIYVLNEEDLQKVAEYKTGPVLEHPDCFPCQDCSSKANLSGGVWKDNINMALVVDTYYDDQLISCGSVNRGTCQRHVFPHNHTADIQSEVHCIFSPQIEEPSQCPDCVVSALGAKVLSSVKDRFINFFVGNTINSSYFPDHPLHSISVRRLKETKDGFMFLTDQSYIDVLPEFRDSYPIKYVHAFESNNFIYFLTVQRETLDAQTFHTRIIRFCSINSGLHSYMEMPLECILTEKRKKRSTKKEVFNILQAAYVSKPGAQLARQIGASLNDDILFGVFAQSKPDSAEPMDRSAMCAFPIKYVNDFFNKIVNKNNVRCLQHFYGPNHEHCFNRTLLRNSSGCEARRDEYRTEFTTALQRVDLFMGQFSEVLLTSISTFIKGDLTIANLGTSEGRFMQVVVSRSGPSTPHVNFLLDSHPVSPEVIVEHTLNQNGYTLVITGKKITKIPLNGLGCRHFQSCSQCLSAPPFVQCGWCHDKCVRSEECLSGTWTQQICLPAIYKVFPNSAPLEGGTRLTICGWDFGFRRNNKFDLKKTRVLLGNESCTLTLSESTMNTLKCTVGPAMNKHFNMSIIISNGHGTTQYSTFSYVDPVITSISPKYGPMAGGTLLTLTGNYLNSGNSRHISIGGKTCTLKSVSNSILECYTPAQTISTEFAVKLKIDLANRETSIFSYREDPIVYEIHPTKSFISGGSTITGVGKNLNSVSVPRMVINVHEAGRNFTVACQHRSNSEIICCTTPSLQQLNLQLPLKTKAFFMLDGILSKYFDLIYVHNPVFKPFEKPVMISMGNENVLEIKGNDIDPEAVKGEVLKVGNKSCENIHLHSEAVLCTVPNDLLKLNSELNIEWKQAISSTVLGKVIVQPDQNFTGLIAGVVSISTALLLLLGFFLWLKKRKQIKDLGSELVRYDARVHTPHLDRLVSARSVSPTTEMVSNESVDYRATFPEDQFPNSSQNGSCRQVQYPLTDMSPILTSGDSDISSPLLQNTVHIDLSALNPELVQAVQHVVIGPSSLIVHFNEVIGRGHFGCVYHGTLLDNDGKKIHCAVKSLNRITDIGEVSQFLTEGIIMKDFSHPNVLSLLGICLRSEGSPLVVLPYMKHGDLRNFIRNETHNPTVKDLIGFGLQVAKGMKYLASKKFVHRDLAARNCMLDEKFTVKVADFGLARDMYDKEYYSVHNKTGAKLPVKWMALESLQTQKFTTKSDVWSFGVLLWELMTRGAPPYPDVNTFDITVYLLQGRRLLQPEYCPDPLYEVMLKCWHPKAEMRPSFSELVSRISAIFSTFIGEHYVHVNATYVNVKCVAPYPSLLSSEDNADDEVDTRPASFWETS

What is called Ki is the dissociation constant of the complex between target and ligand, obtained from inhibition or displacement. Lower therefore signals tighter binding. In general, IC50 refers to the point on the concentration scale where inhibition reaches its midpoint. `C[C@H](c1ccc2ncccc2c1)c1nnc2sc(-c3cnn(C)c3)nn12` [Compound 1, 6-((R)-1-(6-(1-methyl-1H-pyrazol-4-yl)-[1,2,4]triazolo[3,4-b][1,3,4]thiadiazol-3-yl)ethyl)quinoline]: the Ki on c-Met is less than 300 nM. The half-inhibitory concentration (IC50) at PDE3A is 6600 nM; in experiment [1], less than 100 nM. The “activity against PDE3 compared with the respective enantiomer” value on PDE3A is “surprisingly less active against PDE3 than their respective enantiomers”.
Compound `C[C@@H](c1ccc2ncccc2c1)c1nnc2sc(-c3cnn(C)c3)nn12` [Compound 1a] gave a Ki at c-Met of less than 300 nM. The IC50 was 760 nM at PDE3A and less than 100 nM in experiment [1].
In turn, `C[C@H](c1c(F)cc2ncccc2c1F)c1nnc2sc(-c3cnn(C)c3)nn12` [Compound 2, 5,7-difluoro-6-((R)-1-(6-(1-methyl-1H-pyrazol-4-yl)-[1,2,4]triazolo[3,4-b][1,3,4]thiadiazol-3-yl)ethyl)quinoline] yielded a Ki at c-Met of less than 300 nM. Moreover, the values for the half-maximal inhibitory concentration (IC50) (at PDE3A; in experiment [1]) were 6150 nM and less than 100 nM, respectively. Besides, the “activity against PDE3 compared with the respective enantiomer” value at PDE3A is recorded as “surprisingly less active against PDE3 than their respective enantiomers”.
The compound `C[C@@H](c1c(F)cc2ncccc2c1F)c1nnc2sc(-c3cnn(C)c3)nn12` [Compound 2a] showed an inhibitory constant (Ki) at c-Met of less than 300 nM. In addition, the results for the IC50 (on PDE3A; in experiment [1]) were 150 nM and less than 100 nM, respectively.

(Values after US8263776B2, “Inhibitors of c-Met protein kinase” (Vertex Pharmaceuticals Incorporated, priority 2009, dated 2012).)
